{"source": "paper PMC11767586", "about": "“Cuphea hookeriana: Phytochemical Profile and the Cosmeceutical and Dermatological Properties of Its Active Fraction from the Whole Plant” (Molecules, 2025)", "target": "T1, mushroom tyrosinase", "T1 construct": "gene PPO1", "assay": "L-dopa oxidation, absorbance at […] nm", "assay_type": "biochemical", "conditions": "L-dopa 2 mM stock, phosphate pH 6.8, 37 °C, 30 min; positive control", "data": [{"smiles": "OC[C@H]1O[C@H](Oc2ccc(O)cc2)[C@H](O)[C@@H](O)[C@@H]1O", "note": "[α-arbutin]", "values": [{"measurement": "IC50", "value": 270, "unit": "µg/mL"}]}]}
